“Also recorded” adds a separate entry of the source.

In one test the test system is p-AKT/mTOR. Kind of test: RapMPI (multiplexed PLA) PPI counts in HCC827 cells. It is filed as cell-based, human. The conditions noted are these: 100 nM, 12 h, 5 PPI dataset. As for the experimental part: (§1) Following that, the cells were then fixed and permeabilized with 1.6% formaldehyde in 1×PBS for 10 minutes at RT and 0.5% Triton X-100 for 10 minutes at RT, respectively. The cells were then blocked using a cell staining medium (CSM) containing 0.5% BSA, and 0.02% Sodium Azide in PBS. […] HCC827 cells were stained with p-ERK overnight followed by 1-hour incubation of secondary antibodies at RT, and 10 mins DAPI staining. The cells were then imaged at 40× magnification, and the intensity levels were analyzed. […] The coverslip was mounted to an acrylic holder for multiple cycles of staining.
(§2) RapMPI on cell cultures: For single color detection, each coverslip prepared with cells was stained with multiple PPIs with one PPI per cycle. The cells were fixed, permeabilized, and then ready for the following staining steps: 1) block the sample with Duolink blocking solution; 2) incubate it with one pair of proteins, conjugated to one PLUS and one MINUS oligonucleotide at 4° C. overnight.
(§3) PPI detection: PPI signals were detected using a custom algorithm leveraging a traditional image processing pipeline. More specifically, each PPI image was preprocessed as followed: images were first transformed using a top-hat filter of size 3 pixels to reduce the noise around PPI signals, then Laplacian of Gaussian images was used to detect bright local maxima as PPI signals. In 3D images, double detection of PPI was filtered out at the same position in consecutive Z stacks. After detecting all the PPI locations in 3D, PPI was observed within a 2.5-pixel radius (0.045 um) by creating a PPI neighborhood graph of radius threshold 2.5 pixels and getting all connected components in the graph. Finally, the mean position of the unique connected components in the graph was extracted as identified unique PPI signals in 3D.

The subject of a further test is p-ERK/c-Myc. The description is as above. It is filed as cell-based, human. The procedure:
as §1, §2, §3

The subject of the next test is Cyclin E/CDK2. The description is as above. It is filed as cell-based, human. The conditions noted are these: 100 nM, 12 h, 5 PPI dataset. The procedure: as §1, §2, §3
The subject of another test is PC9 cells. The test can be described thus: Subpopulation clustering of single cells (Leiden). It is filed as cell-based, human. The note with it: 40 nM.
In another test the test system is p-EGFR (Y1068). The note with it: PC9 cells; cited from earlier work.
The test system of test [1] is pancytokeratin-positive cells. Kind of test: Pan-cytokeratin staining of HCC827 xenograft tissue. Type of test: in vivo, mouse. The note with it: 2-month treatment. The source says: Tissues: HCC827-derived mouse xenografts were provided by Dr. Sun Shi-yong (Emory University). […] Mice were then euthanized, and the tumor was embedded in OCT for sectioning. The OCT tissues were fixed in acetone, rehydrated, permeabilized in 0.4% Triton X-100, blocked, and ready for multiplexed experiments.

The next test deals with c-MYC. The conditions noted are these: EGFRm-sensitive cells; cited from earlier work.
The test system of another test is NSCLC patients. The conditions noted are these: phase 3 clinical trial, 80 mg once daily, vs other EGFR-TKI drugs; cited from earlier work.
In another test the test system is WNT1. The test can be described thus: RapMIF multiplexed immunofluorescence in PC9 cells, WNT1. It is filed as cell-based, human. The note with it: 40 nM, 48 hours vs control. The source says: RapMIF: The RapMIF setup consisted of an autosampler that transferred antibodies and performed washes of the sample automatically and controlled by a custom-written python code (FIGS. 10A-10D). The buffers used during the procedure are 1×PBS (D8537, Sigma), CSM, and Fluorophore bleaching solution. PBS 1× was the wash buffer for the stabilization of the cells and the tubes. CSM was the imaging buffer that helped in the annealing of antibodies with the cells. Fluorophore bleaching solution was the strip buffer used to remove staining after each cycle. The walls on the 96-well plate for the antibodies were pre-washed with 1×PBS. The well plate was covered with foil stickers to ensure a dark condition. […] Once the cells were mounted and the antibodies and buffers were ready for transfer, automatic staining was done by running Python code. […]
Cell multiplexing: Each coverslip prepared with cells was stained with 25 markers using a total of 11-12 cycles (FIG. 10C). […] To quantify the frequencies belonging to the signal that disappears after bleaching, a Fourier analysis of before and after bleaching was performed to indicate the difference in frequencies belonging to the signal.
Image intensity: From nuclei and cytosol cell masks, the mean intensity of markers in each cell area was calculated. […]

In test [2] the test system is HCC827-derived mouse xenografts. The test can be described thus: Tumor growth of HCC827-derived xenografts in mice. Type of test: in vivo. The conditions noted are these: daily Osimertinib.

As to `C=CC(=O)Nc1cc(Nc2nccc(-c3cn(C)c4ccccc34)n2)c(OC)cc1N(C)CCN(C)C` [Osimertinib], the “p-AKT/mTOR interactions in the cytoplasm” value with p-AKT/mTOR is on record as “downregulated the p-AKT/mTOR pathway reducing the interactions in the cytoplasm”. Moreover, the “P-ERK/c-Myc interactions (PPI count)” value with p-ERK/c-Myc (100 nM, 12 h, 5 PPI dataset) was “significantly increased interactions; also recorded: upregulation”. Besides, the “p-ERK/c-Myc PPI” value in the test with p-ERK/c-Myc (12 hours, 9 PPI dataset) is reported as “effectively inhibited”. Besides, the “interaction between cyclin E and CDK2 (PPI count)” value in the test with Cyclin E/CDK2 is on record as “effectively inhibited”. Further, in the test on PC9 cells, the “distribution of treated cells over 12 subpopulations” value is “mainly distributed in subpopulation 3 and subpopulation 0”. Besides, in the test on p-EGFR (Y1068), the “p-EGFR (Y1068) level” value was “failed to alter the p-EGFR (Y1068)”. In addition, the pancytokeratin-positive cells entry in test [1] is recorded as “more pancytokeratin-positive cells”. In the test on c-MYC, the c-MYC degradation entry is “induce the degradation of c-MYC”. Moreover, in the test on NSCLC patients, the overall survival result is “longer; also recorded: extended” and the progression-free survival entry is listed as “longer; also recorded: extended”. In addition, the WNT1 signaling result in the test with WNT1 was “increased the WNT1 signaling”. Besides, the tumor result in [2] (5-day treatment) was “almost disappeared”. The “tumor as treatment continued (acquired resistance)” value in test [2] (continued treatment) was “grew back and larger”. Moreover, the xenograft growth result in [2] (first week) is on record as “effectively inhibited for the first week”.

The record behind these values is patent US20240060990A1, “SPATIAL SIGNALING NETWORKS FOR MULTIPLEXED DRUG RESPONSE MEASUREMENT AND MODELING” (Georgia Tech Research Corporation, priority 2022, published 2024).
